Measured values from PubChem BioAssay AID1963434 (Molecular Pharmacology Branch, DTP, NCI, 2024).
Several values for one entry are separate records, joined by “and”; a condition that tells them apart may be missing. Identical values can stand only once. One block for each molecule: values may come before it.

Tested on: 755483-174-R-J1-PDC complex spheroid growth, percent test/control
Assay: Anticancer human tumor 755483-174-R-J1-PDC patient-derived rhabdomyosarcoma cell line growth inhibition [Asc]
Settings: for viability, T/C: stronger effect = lower value
Experimental: Multicellular complex tumor spheroid response to apoptosis pathway targeting inhibitors Alrizomadlin, Pelcitoclax, and Dasminapant in combination with a variety of drugs and investigational agents in selected tumor cell lines
The MDM2 inhibitor alrizomadlin, the Bcl-2/Bcl-xL inhibitor pelcitoclax, and the IAPs inhibitor dasminapant were evaluated both individually and in combination with standard of care and investigational anticancer small molecules within a complex spheroid model of solid tumors. . Complex spheroids include a stromal component modeled by human endothelial cells (HUVEC) and fibroblasts modeled by human mesenchymal stem cells (MSCs). The concentration ranges selected for each drug and investigational agent were based upon clinically achievable concentrations if the clinical Cmax of the agent was known.
Compounds. The drugs and investigational agents: alrizomadlin (APG-115; NSC831270), pelcitoclax (APG-1252; NSC835773), dasminapant (APG-1387;NSC834197), TAK-243 (NSC785004), copanlisib (NSC809693), olaparib (NSC753686), talazoparib (NSC767125), cobimetinib (NSC 768068), eltanexor (KPT-8602, NSC 794443), abemaciclib (NSC 768073), sotorasib (NSC818433), adagrasib (NSC 831453), MRTX-1133 (NSC 836407), Iadademestat (ORY1001, NSC 806812), and RMC-4630 (NSC839698), were obtained from the NCI Developmental Therapeutics Program Chemical Repository. The FDA-approved anticancer drug set is available from the Developmental Therapeutics Program at https://dtp.cancer.gov/organization/dscb/obtaining/available plates.htm. […] The stock solutions were prepared in dimethyl sulfoxide (DMSO, Sigma-Aldrich, St. Louis, MO, cat. D2650) at 800-fold the tested concentration and stored at -70 degrees C prior to their use. All drugs and investigational agents were tested over a range starting from a high concentration at or near the clinical Cmax and decreasing in half-log increments. If the clinical Cmax for an agent had not been determined, the highest concentration tested was 10 microM.
The patient-derived cancer (PDC) cell lines include five colon adenocarcinomas: 186277-243-T-J2-PDC, 616215-338-R-J1-PDC, 439559-082-T-J2-PDC, 463943-066-T-J2-PDC, and 519858-162-T-J1-PDC; three pancreatic carcinomas: 323965-272-R-J2-PDC, 521955-158-R6-J3-PDC, and 521955-158-R2-J5-PDC; two uterine sarcomas: 327498-152-R-J2-PDC and 993429-296-R-J1-PDC; two rhabdomyosarcomas: 755483-174-R-J1-PDC and 772245-204-R-J1-PDC; two soft tissue sarcomas: 126254-015-R-J1-PDC and 494315-158-R-J1-PDC; two malignant fibrous histiocytomas: 317291-083-R-J1-PDC and 596521-263-R-J1-PDC; two breast carcinomas: 171881-019-R-J1-PDC and 885512-296-R-J2-PDC; and one ovarian carcinoma: 6556581-035-R-J-PDC were obtained from the NCI PDMR, (https://pdmr.cancer.gov). The established cell lines HSSY-2 synovial sarcoma (RRID:CVCL 8719), SYO-1 synovial sarcoma (RRID:CVCL_7146), MPNST malignant peripheral neural sheath tumor were obtained from the Sloan Kettering Institute. The following established cell lines were purchased from the American Type Culture Collection (ATCC, Manassas, VA), Sor the received from the NCI repository:, PANC-1 pancreatic carcinoma (CRL-1469, RRID:CVCL_0480), OVCAR-5 ovarian carcinoma (RRID:CVCL_1628), OVCAR-8 ovarian carcinoma (RRID:CVCL_1629), , MCF-7 breast carcinoma (CRL-12584, RRID:CVCL_0031), MDA-MB-231 breast carcinoma (CRL-12532, RRID:CVCL_0062), NCI-H1876 small cell lung carcinoma (CRL-5902, RRID:CVCL_1503), NCI-H510A small cell lung carcinoma (HTB-184, RRID:CVCL_1565), NCI-H1417 (CRL-5869, RRID:CVCL_1469), and NCI-H196 small cell lung carcinoma (CRL-5823, RRID:CVCL_1509). Dr. Peter Houghton (Greehey Children's Cancer Research Institute, University of Texas Health Science Center, San Antonio, TX) provided Rh-18 rhabdomyosarcoma (RRID:CVCL_1659). Pooled donor human umbilical vein endothelial cells (HUVEC, Lonza, cat. CC-2519) and human mesenchymal stem cells (hMSC, Lonza, cat. PT-2501) were purchased from Lonza (Walkersville, MD).
Cell Culture. […]
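Further: spheroids exposed to compounds for seven days before readout.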

IC50 (curve of first compound, second compound 0.1 µM): < 0.0316 µM | IC50 (curve of first compound, second compound 0.316 µM): < 0.0316 µM | IC50 (curve of first compound, second compound 1 µM): < 0.0316 µM | IC50 (curve of first compound, second compound 3.16 µM): < 0.0316 µM | IC50 (curve of first compound, second compound 10 µM): < 0.0316 µM
SMILES: O=C(c1cc(Cc2n[nH]c(=O)c3ccccc23)ccc1F)N1CCN(C(=O)C2CC2)CC1 + Cc1c(S(C)(=O)=O)c(-c2cc(F)cc(N3CCN(c4ccc(NS(=O)(=O)c5ccc(NC(CCN6CCC(C(=O)OCCCP(=O)(O)O)CC6)CSc6ccccc6)c(S(=O)(=O)C(F)(F)F)c5)cc4)CC3)c2)c(-c2ccc(Cl)cc2)n1C(C)C
viability, T/C (second compound 0.1 µM, first compound 0.0316 µM): 40.4% | viability, T/C (second compound 0.1 µM, first compound 0.1 µM): 35.8% | viability, T/C (second compound 0.1 µM, first compound 0.316 µM): 53% | viability, T/C (second compound 0.1 µM, first compound 1 µM): 47.3% | viability, T/C (second compound 0.1 µM, first compound 3.16 µM): 25.8% | viability, T/C (second compound 0.1 µM, first compound 10 µM): 14.7% | viability, T/C (second compound 0.316 µM, first compound 0.0316 µM): 39.7% | viability, T/C (second compound 0.316 µM, first compound 0.1 µM): 32.4% | viability, T/C (second compound 0.316 µM, first compound 0.316 µM): 28.6% | viability, T/C (second compound 0.316 µM, first compound 1 µM): 25.4% | viability, T/C (second compound 0.316 µM, first compound 3.16 µM): 23.5% | viability, T/C (second compound 0.316 µM, first compound 10 µM): 12.2% | viability, T/C (second compound 1 µM, first compound 0.0316 µM): 32.6% | viability, T/C (second compound 1 µM, first compound 0.1 µM): 38.9% | viability, T/C (second compound 1 µM, first compound 0.316 µM): 24.2% | viability, T/C (second compound 1 µM, first compound 1 µM): 31.6% | viability, T/C (second compound 1 µM, first compound 3.16 µM): 20.4% | viability, T/C (second compound 1 µM, first compound 10 µM): 12.7% | viability, T/C (second compound 3.16 µM, first compound 0.0316 µM): 31% | viability, T/C (second compound 3.16 µM, first compound 0.1 µM): 32.7% | viability, T/C (second compound 3.16 µM, first compound 0.316 µM): 22.9% | viability, T/C (second compound 3.16 µM, first compound 1 µM): 17.6% | viability, T/C (second compound 3.16 µM, first compound 3.16 µM): 14.7% | viability, T/C (second compound 3.16 µM, first compound 10 µM): 8.75% | viability, T/C (second compound 10 µM, first compound 0.0316 µM): 20.1% | viability, T/C (second compound 10 µM, first compound 0.1 µM): 30.2% | viability, T/C (second compound 10 µM, first compound 0.316 µM): 24.1% | viability, T/C (second compound 10 µM, first compound 1 µM): 33.2% | viability, T/C (second compound 10 µM, first compound 3.16 µM): 20.3% | viability, T/C (second compound 10 µM, first compound 10 µM): 9.59%

IC50 (curve of first compound, second compound 0.03 µM): > 10 µM | IC50 (curve of first compound, second compound 0.0949 µM): > 10 µM | IC50 (curve of first compound, second compound 0.3 µM): > 10 µM | IC50 (curve of first compound, second compound 0.949 µM): > 10 µM | IC50 (curve of first compound, second compound 3 µM): > 10 µM
SMILES: C=CC(=O)N1CCN(c2nc(=O)n(-c3c(C)ccnc3C(C)C)c3nc(-c4c(O)cccc4F)c(F)cc23)C(C)C1 (configuration not stated) + CCN1C(C(=O)NC23CCC(C(=O)O)(CC2)CC3)C(c2cccc(Cl)c2F)C2(C(=O)Nc3cc(Cl)ccc32)C12CCCCC2
viability, T/C (second compound 0.03 µM, first compound 0.0316 µM): 92.4% | viability, T/C (second compound 0.03 µM, first compound 0.1 µM): 83.7% | viability, T/C (second compound 0.03 µM, first compound 0.316 µM): 99.7% | viability, T/C (second compound 0.03 µM, first compound 1 µM): 88.7% | viability, T/C (second compound 0.03 µM, first compound 3.16 µM): 99.1% | viability, T/C (second compound 0.03 µM, first compound 10 µM): 65.7% | viability, T/C (second compound 0.0949 µM, first compound 0.0316 µM): 88.6% | viability, T/C (second compound 0.0949 µM, first compound 0.1 µM): 103% | viability, T/C (second compound 0.0949 µM, first compound 0.316 µM): 82.4% | viability, T/C (second compound 0.0949 µM, first compound 1 µM): 97.8% | viability, T/C (second compound 0.0949 µM, first compound 3.16 µM): 98.4% | viability, T/C (second compound 0.0949 µM, first compound 10 µM): 78% | viability, T/C (second compound 0.3 µM, first compound 0.0316 µM): 80.8% | viability, T/C (second compound 0.3 µM, first compound 0.1 µM): 80.6% | viability, T/C (second compound 0.3 µM, first compound 0.316 µM): 85.3% | viability, T/C (second compound 0.3 µM, first compound 1 µM): 103% | viability, T/C (second compound 0.3 µM, first compound 3.16 µM): 125% | viability, T/C (second compound 0.3 µM, first compound 10 µM): 88.8% | viability, T/C (second compound 0.949 µM, first compound 0.0316 µM): 89.1% | viability, T/C (second compound 0.949 µM, first compound 0.1 µM): 82.7% | viability, T/C (second compound 0.949 µM, first compound 0.316 µM): 115% | viability, T/C (second compound 0.949 µM, first compound 1 µM): 100% | viability, T/C (second compound 0.949 µM, first compound 3.16 µM): 107% | viability, T/C (second compound 0.949 µM, first compound 10 µM): 83.2% | viability, T/C (second compound 3 µM, first compound 0.0316 µM): 84.4% | viability, T/C (second compound 3 µM, first compound 0.1 µM): 107% | viability, T/C (second compound 3 µM, first compound 0.316 µM): 94.5% | viability, T/C (second compound 3 µM, first compound 1 µM): 81.2% | viability, T/C (second compound 3 µM, first compound 3.16 µM): 76.7% | viability, T/C (second compound 3 µM, first compound 10 µM): 63.4%

IC50 (curve of compound): 0.713 µM and 2.73 µM and 2.21 µM
SMILES: O=C(c1cc(Cc2n[nH]c(=O)c3ccccc23)ccc1F)N1CCN(C(=O)C2CC2)CC1
viability, T/C (compound 0.0316 µM): 81.5% and 67.3% and 77.6% | viability, T/C (compound 0.1 µM): 57.5% and 87% and 85.7% | viability, T/C (compound 0.316 µM): 70.2% and 82% and 67.8% | viability, T/C (compound 1 µM): 41.8% and 56.8% and 65.6% | viability, T/C (compound 3.16 µM): 32.3% and 51.1% and 43.3% | viability, T/C (compound 10 µM): 30.1% and 17.6% and 22.7%
